This is an account of results in PMC9854539, “QSAR Studies, Molecular Docking, Molecular Dynamics, Synthesis, and Biological Evaluation of Novel Quinolinone-Based Thiosemicarbazones against Mycobacterium tuberculosis” (Antibiotics, 2022).

Common to all, as to assay type: cell-based, Mycobacterium tuberculosis
One experiment has as its system M. tuberculosis Orphan. Briefly: Spot culture growth inhibition assay (SPOTi), MIC. To be noted: Mycobacterium tuberculosis; multiresistant to isoniazid and rifampicin.
In a further experiment the test system is M. tuberculosis Beijing. The experiment is described as follows: Spot culture growth inhibition assay (SPOTi), MIC. The conditions noted are these: multiresistant to isoniazid and rifampicin.
The test system of the next experiment is M. tuberculosis LAM 9. The experiment is described as follows: Spot culture growth inhibition assay (SPOTi), MIC. The conditions noted are these: multiresistant to isoniazid and rifampicin.
In another experiment the test system is M. tuberculosis Haarlem. The experiment is described as follows: Spot culture growth inhibition assay (SPOTi), MIC. The conditions noted are these: multiresistant to isoniazid and rifampicin.
In experiment [1] the test system is M. tuberculosis ATCC 35838. Briefly: Spot culture growth inhibition assay (SPOTi), MIC. The conditions noted are these: rifampicin resistant.
Experiment [2] deals with M. tuberculosis ATCC 35822. The experiment is described as follows: Spot culture growth inhibition assay (SPOTi), MIC. To be noted: isoniazid resistant.
Experiment [3] deals with multiresistant M. tuberculosis. The conditions noted are these: summary of Table 9.
[4] abbreviates: Mycobacterium tuberculosis, LAM9.
The mark [5] stands for this setting: Mycobacterium tuberculosis, ATCC35838.
The mark [6] stands for this setting: Mycobacterium tuberculosis, ATCC35822.

In brackets after ≈: the same amount, converted by molar mass.

For orientation: MIC means the least concentration at which growth counts as inhibited. Regarding `CC(/C=C/c1cc2cc(C)ccc2[nH]c1=O)=N\NC(N)=S` [Compound 11b, (E)-2-((E)-4-(6-Methyl-2-oxo-1,2-dihydroquinolin-3-yl)but-3-en-2-ylidene)hydrazine-1-carbothioamide], the MIC worked out at 33.3 µM (≈ 10 µg/mL) against M. tuberculosis Orphan; 1.66 µM (≈ 0.499 µg/mL) against M. tuberculosis Beijing (Mycobacterium tuberculosis); 16.6 µM (≈ 5 µg/mL) against M. tuberculosis LAM 9 (setting [4]); 3.33 µM (≈ 1 µg/mL) against M. tuberculosis Haarlem (Mycobacterium tuberculosis); 3.33 µM (≈ 1 µg/mL) in experiment [1] (setting [5]); 3.33 µM (≈ 1 µg/mL) in experiment [2] (setting [6]).

For the compound `CC(/C=C/c1cc2cccc(C)c2[nH]c1=O)=N\NC(N)=S` [Compound 11c, (E)-2-((E)-4-(8-Methyl-2-oxo-1,2-dihydroquinolin-3-yl)but-3-en-2-ylidene)hydrazine-1-carbothioamide], the MIC with M. tuberculosis Orphan worked out at 66.6 µM (≈ 20 µg/mL); in the experiment on M. tuberculosis Beijing (Mycobacterium tuberculosis), 0.33 µM (≈ 0.0991 µg/mL); in the experiment with M. tuberculosis LAM 9 (setting [4]), 3.29 µM (≈ 0.988 µg/mL); in the experiment with M. tuberculosis Haarlem (Mycobacterium tuberculosis), 33.3 µM (≈ 10 µg/mL); in experiment [1] (setting [5]) it was 1.66 µM (≈ 0.499 µg/mL); in experiment [2] (setting [6]) it was 0.33 µM (≈ 0.0991 µg/mL).

Regarding `CC(/C=C/c1cc2ccc(Cl)cc2[nH]c1=O)=N\NC(N)=S` [Compound 11d, (E)-2-((E)-4-(7-Chloro-2-oxo-1,2-dihydroquinolin-3-yl)but-3-en-2-ylidene)hydrazine-1-carbothioamide], the MIC against M. tuberculosis Orphan worked out at 6.23 µM (≈ 2 µg/mL); against M. tuberculosis Beijing (Mycobacterium tuberculosis) it was 0.33 µM (≈ 0.106 µg/mL); against M. tuberculosis LAM 9 (setting [4]) it was 3.12 µM (≈ 1 µg/mL); in the experiment with M. tuberculosis Haarlem (Mycobacterium tuberculosis), 1.56 µM (≈ 0.5 µg/mL); in experiment [1] (setting [5]) it was 3.33 µM (≈ 1.07 µg/mL); in experiment [2] (setting [6]), 6.23 µM (≈ 2 µg/mL).

For `CC(/C=C/c1cc2cc(Br)ccc2[nH]c1=O)=N\NC(N)=S` [Compound 11e, (E)-2-((E)-4-(6-Bromo-2-oxo-1,2-dihydroquinolin-3-yl)but-3-en-2-ylidene)hydrazine-1-carbothioamide], the MIC in the experiment with M. tuberculosis Orphan was 27.4 µM (≈ 10 µg/mL); in the experiment on M. tuberculosis Beijing (Mycobacterium tuberculosis) it was 0.27 µM (≈ 0.0986 µg/mL); against M. tuberculosis LAM 9 (setting [4]), 2.74 µM (≈ 1 µg/mL); against M. tuberculosis Haarlem (Mycobacterium tuberculosis) it was 27.4 µM (≈ 10 µg/mL); in experiment [1] (setting [5]), 2.73 µM (≈ 0.997 µg/mL); in experiment [2] (setting [6]), 1.37 µM (≈ 0.5 µg/mL).

As to `CC1COc2c(N3CCN(C)CC3)c(F)cc3c(=O)c(C(=O)O)cn1c23` (stereo not drawn) [Oxafloxacin, reference compound], the MIC (in the experiment on M. tuberculosis Beijing; against M. tuberculosis LAM 9; in the experiment with M. tuberculosis Haarlem; in experiment [1]; in experiment [2]) was 2.76 µM (≈ 0.997 µg/mL) throughout. Also, the “MIC against the different families of multiresistant M. tuberculosis” value in experiment [3] was 2.76 µM.
